Assay results published in article PMC7525318, “Identification of Six Flavonoids as Novel Cellular Antioxidants and Their Structure-Activity Relationship” (Oxidative Medicine and Cellular Longevity, 2020).
Like-named read-outs stand apart in the source and are kept apart here. Each block holds one compound with its values, some of them ahead of it.

Legend:
[1] = test system: superoxide dismutase (SOD); test: Intracellular SOD activity in ABAP-treated HepG2 cells; assay type: cell-based; conditions: then ABAP
Method: (§1) HepG2 cells were seeded (1 × 10^6 cells/well) in six-well plates. After incubation for 24 h, the cells were pretreated with different concentration samples. Medium was washed by PBS and treated with 600 μM ABAP. The cells were collected and treated with cell lysis buffer (20 mM Tris at pH 7.5, 150 mM NaCl and 1% Triton X-100) at 4°C. The lysed cells were used to measure the intracellular activities of SOD, CAT, and GSH-Px by kits according to the manufacturer instructions (Wen 2015). Cells without sample and ABAP treatment were used as positive control (PC), while cells treated with ABAP but not sample were used as negative control (NC).

[2] = test system: HepG2 cells; test: Cellular antioxidant activity (CAA) assay; assay type: cell-based; conditions: DCFH-DA 25 μM, ABAP 600 μM
Method: The CAA assay was tested as described previously. 6 × 10^4 cells/well of HepG2 cells were seeded at a 96-well microplate with 100 μL of growth medium/well. […] Then, the cells were washed with PBS and treated with 100 μL of 600 μM ABAP (dissolved in HBSS), and the 96-well microplate was immediately placed into an Infinite SpectraMax i3x Multi-Mode Detection plate-reader at 37°C. […]

[3] = Oxygen radical antioxidant capacity (ORAC) assay; conditions: Trolox equivalents; AAPH, fluorescein
Method: The ORAC assay was evaluated as previously described by Cao et al. with some modifications. 50 μL of samples or Trolox with different concentrations and the fluorescein solution was added to a 96-well microplate, which was incubated at 37°C for 10 min. […] The ORAC values were calculated by the regression equation between the Trolox concentration and the net area under the curve (expressed as μmol Trolox eq/μmol sample).

[4] = test system: HepG2 cells; test: Cytotoxicity assay (CCK-8); assay type: cell-based
Method: (§2) The cytotoxicity and antiproliferative activity assays were performed by using the CCK-8 assay kit. Briefly, HepG2 cells were cultured at a density of 4 × 10^4 cells/well or 2.5 × 10^4 cells/well in a 96-well microplate with growth medium. After incubation at 37°C, the growth medium is treated with 100 μL of growth medium containing different concentrations of tested compounds for 24 h or 72 h. The wells having growth medium without the tested compound served as control. Then, the cells were incubated with 10 μL/well CCK-8 solutions for 2 h at 37°C. The absorbance values of each well were measured at 450 nm using a microplate reader (SpectraMax i3x, ForteBio Analytics Co., Ltd., USA). The cytotoxic activity and antiproliferative effects of the tested compound was calculated as(1) Cytotoxicity %=1−As/Ac×100%, (2) Cell proliferation %=As/Ac×100%, where As is the absorbance of the well with compound; Ac is the absorbance of control.

[5] = DPPH radical scavenging activity; conditions: 0.1 mM DPPH in methanol, 37°C, 30 min
Method: This assay was conducted as previously described by Wen et al. with some modifications. DPPH was freshly prepared in methanol at a concentration of 0.1 mM. The solution (20 μL) containing the tested compounds with different concentrations was added into the DPPH solution (180 μL) in the 96-well plates. […] The IC50 value was calculated on the scavenging activity against DPPH radical.

[6] = test system: HepG2 cells; test: Antiproliferative activity assay (CCK-8); assay type: cell-based
Method: as §2

[7] = test system: glutathione peroxidase (GSH-Px); test: Intracellular GSH-Px activity in ABAP-treated HepG2 cells; assay type: cell-based; conditions: for GSH-Px activity of PC value: % of PC value; for increase of GSH-Px activity: HepG2, pretreatment before ABAP
Method: as §1

[8] = test system: catalase (CAT); test: Intracellular CAT activity in ABAP-treated HepG2 cells; assay type: cell-based; conditions: for CAT activity of PC value: % of PC value; for increase of CAT activity: HepG2, pretreatment before ABAP
Method: as §1

[9] = HepG2, pretreated at a higher concentration
[10] = HepG2, pretreated with 15 μM, then ABAP
[11] = HepG2, pretreated with 30 μM, then ABAP
[12] = HepG2, pretreated with 45 μM, then ABAP
[13] = HepG2, first of three concentrations (not given)
[14] = HepG2, second of three concentrations (not given)
[15] = HepG2, third of three concentrations (not given)
[16] = HepG2, pretreated with 10 μM, then ABAP
[17] = HepG2, pretreated with 20 μM, then ABAP
[18] = HepG2, pretreated with 5 μM, then ABAP

EC50 ([2]; Homo sapiens): 19.5 ± 1.48 µM
IC50 [5]: > 200 µM
IC50 ([6]; Homo sapiens): 90.7 ± 2.45 µM
Compound: COc1c(-c2ccc(O)c(O)c2)oc2cc(O)cc(O)c2c1=O [compound 5, 3-O-methylquercetin]
SOD activity compared to NC cells [1, 9]: significant increase
SOD activity compared to NC cells ([1]; HepG2, pretreated with 15 μM): insignificant increase
ORAC values [3]: 4.71 ± 0.12 μmol TE/μmol
cytotoxicity ([4]; range of 10-160 μM): no significant effects
cytotoxicity revealed by the cell proliferative assay [6]: slightly cytotoxicity
cytotoxicity revealed by the cell proliferative assay ([6]; listed as 3-O-methylquercetin): low cytotoxicity
GSH-Px activity of PC value [7, 10]: 59.74 ± 3.23%
GSH-Px activity of PC value [7, 11]: 69.08 ± 4.27%
GSH-Px activity of PC value [7, 12]: 83.44 ± 4.18%
increase of GSH-Px activity [7]: dose-dependent manner
CAT activity of PC value [8, 10]: 49.55 ± 3.21%
CAT activity of PC value [8, 11]: 69.34 ± 5.15%
CAT activity of PC value [8, 12]: 80.67 ± 7.13%
increase of CAT activity [8]: dose-dependent manner

EC50 ([2]; Homo sapiens): 45.1 ± 2.12 µM
IC50 [5]: 71.7 µM
Compound: O=c1c(O[C@@H]2O[C@@H](CO)[C@H](O)[C@H]2O)c(-c2ccc(O)c(O)c2)oc2cc(O)cc(O)c12 [compound 10, Avicularin]
SOD activity compared to NC cells [1, 9]: significant increase
SOD activity compared to NC cells ([1]; HepG2, pretreated with 10 μM): insignificant increase
cytotoxicity ([4]; range of 10-160 μM): no significant effects
GSH-Px activity of PC value [7, 16]: 54.37 ± 3.05%
GSH-Px activity of PC value [7, 17]: 68.21 ± 4.25%
GSH-Px activity of PC value [7, 11]: 81.82 ± 5.52%
increase of GSH-Px activity [7]: dose-dependent manner
CAT activity of PC value [8, 16]: 51.90 ± 3.21%
CAT activity of PC value [8, 17]: 68.95 ± 4.22%
CAT activity of PC value [8, 11]: 81.82 ± 4.25%
increase of CAT activity [8]: dose-dependent manner

EC50 ([2]; Homo sapiens): 139 ± 5.21 µM
IC50 [5]: > 200 µM
Compound: O=c1cc(-c2ccc(O)c(O)c2)oc2cc(O)c([C@@H]3O[C@H](CO)[C@@H](O)[C@H](O)[C@H]3O)c(O)c12 [compound 32, Isoorientin]
SOD activity compared to NC cells [1, 9]: significant increase
SOD activity compared to NC cells ([1]; HepG2, pretreated with 40 μM): insignificant increase
cytotoxicity ([4]; range of 10-160 μM): no significant effects
GSH-Px activity of PC value [7, 13]: 47.79 ± 3.28%
increase of GSH-Px activity [7]: dose-dependent manner
GSH-Px activity of PC value [7, 14]: 55.99 ± 3.57%
GSH-Px activity of PC value [7, 15]: 71.20 ± 4.28%
CAT activity of PC value [8, 13]: 44.93 ± 2.23%
increase of CAT activity [8]: dose-dependent manner
CAT activity of PC value [8, 14]: 52.68 ± 3.42%
CAT activity of PC value [8, 15]: 68.35 ± 3.72%

EC50 ([2]; Homo sapiens): > 200 µM
IC50 [5]: 96.03 ± 0.13 µM
Compound: Oc1cc(O)c2c(c1)O[C@H](c1ccc(O)c(O)c1)[C@H](O)C2 [compound 58, Epicatechin]
ORAC values [3]: 4.83 ± 0.13 μmol TE/μmol

EC50 ([2]; Homo sapiens): > 200 µM
IC50 [5]: 130 ± 5.55 µM
Compound: Oc1cc(O)c2c(c1)OC(c1ccc(O)c(O)c1)C(O)C2 (stereo not shown) [compound 59, Catechin]
ORAC values [3]: 4.93 ± 0.02 μmol TE/μmol

EC50 ([2]; Homo sapiens): 25.91 ± 0.25 µM
IC50 [5]: 19.1 ± 0.62 µM
Compound: O=C(O[C@@H]1Cc2c(O)cc(O)cc2O[C@@H]1c1cc(O)c(O)c(O)c1)c1cc(O)c(O)c(O)c1 [compound 60, Epigallocatechin gallate]
ORAC values [3]: 6.02 ± 0.14 μmol TE/μmol

Continued, compound first:

Compound: O=c1c(O)c(-c2ccc(O)cc2)oc2c(O)c(O)cc(O)c12 [compound 8, Herbacetin]
SOD activity compared to NC cells [1, 9]: significant increase
SOD activity compared to NC cells ([1]; HepG2, pretreated with 15 μM): insignificant increase
EC50 ([2]; Homo sapiens): 27.1 ± 2.47 µM
ORAC values [3]: 5.05 ± 0.05 μmol TE/μmol
cytotoxicity ([4]; range of 10-160 μM): no significant effects
IC50 [5]: > 200 µM
GSH-Px activity of PC value [7, 13]: 54.02 ± 3.02%
increase of GSH-Px activity [7]: dose-dependent manner
GSH-Px activity of PC value [7, 14]: 63.46 ± 2.51%
GSH-Px activity of PC value [7, 15]: 82.02 ± 5.35%
CAT activity of PC value [8, 13]: 50.86 ± 2.23%
increase of CAT activity [8]: dose-dependent manner
CAT activity of PC value [8, 14]: 67.01 ± 5.32%
CAT activity of PC value [8, 15]: 80.86 ± 5.21%

Compound: O=c1c(O)c(-c2ccc(O)cc2)oc2cc(OC3O[C@H](CO)[C@@H](O)[C@H](O)[C@H]3O)cc(O)c12 (stereo partly shown) [compound 13, Kaempferol-7-O-glucopyranoside]
SOD activity compared to NC cells [1, 9]: significant increase
SOD activity compared to NC cells ([1]; HepG2, pretreated with 20 μM): insignificant increase
EC50 ([2]; Homo sapiens): 57.8 ± 3.12 µM
cytotoxicity ([4]; at higher concentration): slight cytotoxicity
cytotoxicity ([4]; range of 10-160 μM): no significant effects
IC50 [5]: > 200 µM
increase of GSH-Px activity [7]: dose-dependent manner
increase of CAT activity [8]: dose-dependent manner

Compound: COc1cc(-c2[o+]c3cc(O)cc(O)c3cc2O[C@@H]2O[C@H](CO)[C@@H](O)[C@H](O)[C@H]2O)cc(OC)c1O.[Cl-] [compound 56, Oenin chloride]
EC50 [2]: > 200 µM
ORAC values [3]: 4.78 ± 0.15 μmol TE/μmol
IC50 [5]: > 200 µM

Compound: COc1cc(-c2[o+]c3cc(O)cc(OC4OC(CO)C(O)C(O)C4O)c3cc2OC2OC(CO)C(O)C(O)C2O)cc(OC)c1O (stereo not shown) [compound 57, Malvin]
EC50 ([2]; Homo sapiens): > 200 µM
ORAC values [3]: 4.32 ± 0.19 μmol TE/μmol
IC50 [5]: > 200 µM

Compound: Rhamnetin [compound 2]
SOD activity compared to NC cells [1, 9]: significant increase
SOD activity compared to NC cells ([1]; HepG2, pretreated with 5 μM): insignificant increase
EC50 [2]: 10.8 ± 0.34 µM
ORAC values [3]: 4.72 ± 0.02 μmol TE/μmol
cytotoxicity ([4]; range of 10-160 μM): no significant effects
IC50 [5]: 34 ± 0.61 µM
GSH-Px activity of PC value [7, 18]: 65.09 ± 3.21%
GSH-Px activity of PC value [7, 16]: 71.88 ± 4.23%
GSH-Px activity of PC value [7, 10]: 81.24 ± 5.65%
increase of GSH-Px activity [7]: dose-dependent manner
CAT activity of PC value [8, 18]: 56.58 ± 3.25%
CAT activity of PC value [8, 16]: 74.98 ± 4.25%
CAT activity of PC value [8, 10]: 83.10 ± 4.54%
increase of CAT activity [8]: dose-dependent manner
